This note sets out measurements from ChEMBL document CHEMBL1201862, “PubChem BioAssay data set” (2004).

Among the test systems are A498; BT-549; EKVX; HCC 2998; HCT-116; HOP-62; KM12; M14; MCF7; NCI-H23; OVCAR-4; SF-539; SNB-19; T47D; UACC-257; LOX IMVI; Malme-3M; RXF 393; SR.
Holding throughout (assay): NCI tumour cell line growth inhibition, 48 h

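Each compound was tested at five concentrations against cells in 96-well plates for 48 hours. The concentration for 50% growth inhibition is given as GI50.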 Active and inactive are the calls of the source. No stated cut-off is given here; in the data, active = GI50 up to about 1.1 µM and inactive = higher.

Consider `Oc1cc(/C=C/c2ccccc2)nc2cc3c(cc12)OCO3`, for which the GI50 in the assay on A498 is 4.2 µM (inactive); with BT-549 it was 5.73 µM (inactive); in the assay on EKVX, 6.12 µM (inactive); with HCC 2998, 2.9 µM (inactive); in the assay on HCT-116 it was 3.19 µM (inactive); in the assay on HOP-62 it was 3.47 µM (inactive). The GI50 is 3.99 µM (inactive) in the assay with KM12; 5.25 µM (inactive) in the assay with M14; 4.85 µM (inactive) with MCF7; 3.26 µM (inactive) with NCI-H23; 14.7 µM (inactive) in the assay with OVCAR-4; 2.08 µM (inactive) in the assay with SF-539. Moreover, the GI50 is 3.78 µM (inactive) in the assay on SNB-19, 3.28 µM (inactive) in the assay on T47D and 22.1 µM (inactive) with UACC-257.
Regarding `CCNc1ccc2c(c1)C(=O)N(OS(C)(=O)=O)C2=O`, the GI50 in the assay on A498 was > 100 µM (inactive); with BT-549 it was 71.4 µM (inactive); with EKVX it was 62.7 µM (inactive); in the assay with HCC 2998, > 100 µM (inactive); in the assay with HCT-116, 36.5 µM (inactive); in the assay on HOP-62 it was > 100 µM (inactive). The GI50 was > 100 µM (inactive) in the assay with KM12; 38.3 µM (inactive) with LOX IMVI; 42.2 µM (inactive) in the assay with M14; 33.6 µM (inactive) in the assay with MCF7; 30.3 µM (inactive) with Malme-3M; > 100 µM (inactive) with NCI-H23. Besides, the GI50 was 42 µM (inactive) with OVCAR-4; 32.4 µM (inactive) with RXF 393; 22.4 µM (inactive) in the assay on SF-539; > 100 µM (inactive) in the assay with SNB-19; > 100 µM (inactive) in the assay with T47D; > 100 µM (inactive) in the assay on UACC-257.
Turning to `CCOC(=O)c1c(SCCN2CCCCC2)n(-c2ccccc2)c(=S)n(-c2ccccc2)c1=O`, the GI50 in the assay on BT-549 was 16.6 µM (inactive); in the assay on HCC 2998 it was > 38.9 µM (inactive); in the assay with HCT-116, 2.18 µM (inactive); in the assay with HOP-62, 14 µM (inactive); in the assay on KM12 it was 19 µM (inactive); with LOX IMVI, 12.8 µM (inactive). Further, the GI50 was 28.6 µM (inactive) in the assay on M14; 5.85 µM (inactive) with MCF7; 16.4 µM (inactive) in the assay with Malme-3M; 16.9 µM (inactive) in the assay with NCI-H23; 17.6 µM (inactive) with OVCAR-4; 13 µM (inactive) in the assay on RXF 393. Besides, the GI50 with SNB-19 is > 78.3 µM (inactive); in the assay with SR it was 2.72 µM (inactive); with T47D, 4.6 µM (inactive); in the assay on UACC-257, 12.4 µM (inactive).
For the molecule `C[n+]1ccc2/c(=C\C#N)c3ccccc3n21`, the GI50 in the assay on BT-549 was 16.6 µM (inactive); in the assay on EKVX it was 24.9 µM (inactive); in the assay with HCC 2998, 19 µM (inactive); with HCT-116, 29.7 µM (inactive); in the assay on HOP-62 it was 30.7 µM (inactive); in the assay with KM12, 19.2 µM (inactive). In addition, the GI50 was 15.9 µM (inactive) in the assay on LOX IMVI; 48.2 µM (inactive) with M14; 20.5 µM (inactive) in the assay with MCF7; 17.1 µM (inactive) with Malme-3M; 11.4 µM (inactive) in the assay with NCI-H23; 21.1 µM (inactive) in the assay on OVCAR-4. The GI50 is 38.1 µM (inactive) in the assay on RXF 393; 4.27 µM (inactive) in the assay on SNB-19; 18.2 µM (inactive) with SR; 5.65 µM (inactive) with T47D; < 0.01 µM (active) in the assay with UACC-257.
On to `CC(C)CNC(=O)Cn1c(-c2ccccc2)cc2ccccc21`, for which the GI50 in the assay with BT-549, in the assay on EKVX, with HCC 2998, in the assay with HCT-116, in the assay on HOP-62 and in the assay on KM12 was > 100 µM (inactive) in each case. Further, the GI50 in the assay on LOX IMVI, in the assay on M14, in the assay on MCF7, in the assay with Malme-3M, in the assay with NCI-H23 and with OVCAR-4 was > 100 µM (inactive) each time. For the same molecule, the GI50 in the assay with RXF 393, in the assay with SF-539, in the assay with SNB-19, in the assay on SR, with T47D and in the assay with UACC-257 was > 100 µM (inactive) throughout.
Take `O=C(Cc1ccccc1)NNc1nc(NNC(=O)c2ccncc2)nc(Nc2cccc(Cl)c2)n1`: the GI50 with BT-549, with EKVX, with HCC 2998, in the assay with HOP-62, with KM12 and with LOX IMVI was > 10 µM (inactive) each time. Besides, the GI50 in the assay on M14, in the assay with MCF7, in the assay on Malme-3M, with NCI-H23, with OVCAR-4 and with SF-539 was > 10 µM (inactive) each time. Also, the GI50 in the assay on SR, in the assay with T47D and in the assay with UACC-257 was > 10 µM (inactive) throughout.
For `O=[N+]([O-])c1ccc(CSC2=C(c3ccc(Cl)cc3)S/C(=C3\SC(SCc4ccc([N+](=O)[O-])cc4)=C(c4ccc(Cl)cc4)S3)S2)cc1`, the GI50 with A498, in the assay on BT-549, in the assay with EKVX, in the assay on HCC 2998, in the assay with HCT-116 and in the assay with HOP-62 was > 100 µM (inactive) each time. The GI50 with KM12, in the assay with LOX IMVI, in the assay with M14, in the assay with MCF7, in the assay with Malme-3M and with NCI-H23 was > 100 µM (inactive) in each case. In addition, the GI50 with OVCAR-4, with RXF 393, in the assay on SF-539, in the assay with SNB-19, with T47D and with UACC-257 was > 100 µM (inactive) each time.
For the molecule `CCCCCCCCCCCCCOCCOCCOCCCCC(O)CCCCCCCCCC1=C[C@H](C)OC1=O` (stereo partly drawn), the GI50 was 11.1 µM (inactive) in the assay on BT-549; 17 µM (inactive) in the assay with HCC 2998; 0.766 µM (active) in the assay on HCT-116; 30.8 µM (inactive) with HOP-62; 19.1 µM (inactive) in the assay with KM12; 4.31 µM (inactive) with LOX IMVI. The GI50 with M14 was 27.2 µM (inactive); in the assay with MCF7, 10.1 µM (inactive); with NCI-H23, 13.7 µM (inactive); in the assay with OVCAR-4, 12.3 µM (inactive); in the assay with RXF 393 it was 20.1 µM (inactive); with SF-539 it was 18.7 µM (inactive). In addition, the GI50 with SNB-19 is 20.7 µM (inactive); in the assay on SR, 2.08 µM (inactive); in the assay on T47D, 16.3 µM (inactive); in the assay on UACC-257, 13.2 µM (inactive).
Consider `O=C1c2cc(Cc3ccccc3)c(=O)c(Cc3ccccc3)cc2C(=O)c2cc(Cc3ccccc3)c(=O)c(Cc3ccccc3)cc21`, for which the GI50 in the assay on A498, with BT-549, in the assay with EKVX, in the assay on HCC 2998, in the assay with HCT-116 and in the assay on HOP-62 was > 100 µM (inactive) in each case. The GI50 with KM12, in the assay with LOX IMVI, in the assay with M14, in the assay with MCF7, with Malme-3M and with NCI-H23 was > 100 µM (inactive) throughout. The GI50 with OVCAR-4 is > 100 µM (inactive); with RXF 393, 24.4 µM (inactive); in the assay on SF-539, > 100 µM (inactive); with SNB-19, > 100 µM (inactive); in the assay with SR, > 100 µM (inactive); in the assay with UACC-257 it was > 100 µM (inactive).
As to `Cc1ncc([N+](=O)[O-])n1CCNCCCCn1ccnc1[N+](=O)[O-]`, the GI50 in the assay with A498 was > 100 µM (inactive); with BT-549, 45.5 µM (inactive); with EKVX, > 100 µM (inactive); with HCT-116 it was > 100 µM (inactive); in the assay with HOP-62, > 100 µM (inactive); with KM12, > 100 µM (inactive). The GI50 in the assay on LOX IMVI, in the assay on M14, with MCF7, with Malme-3M, in the assay with NCI-H23 and with OVCAR-4 was > 100 µM (inactive) throughout. Also, the GI50 in the assay on RXF 393, in the assay on SF-539, with SR, in the assay on T47D and with UACC-257 was > 100 µM (inactive) in each case.
For `O=C1c2ccccc2-c2nc(-c3cccc([N+](=O)[O-])c3)nnc21`, the GI50 in the assay with BT-549 was 19.5 µM (inactive); in the assay on EKVX, 7.38 µM (inactive); in the assay with HCT-116, 23.1 µM (inactive); with KM12 it was 8 µM (inactive); with M14, 23 µM (inactive); in the assay with MCF7, 11.4 µM (inactive). The GI50 with Malme-3M was 17.5 µM (inactive); in the assay on NCI-H23, 17.6 µM (inactive); in the assay with OVCAR-4, 15.4 µM (inactive); in the assay with RXF 393, 24.3 µM (inactive); in the assay on SF-539 it was 22.6 µM (inactive); in the assay on SNB-19, 13.9 µM (inactive). Further, the GI50 in the assay on SR is 1.11 µM (active); with T47D, 44.5 µM (inactive); in the assay on UACC-257, 3.24 µM (inactive).
Turning to `COC(=O)c1cc(C#Cc2cc(OC)ccc2OC)ccc1OC`, the GI50 in the assay on BT-549 is 37.7 µM (inactive); in the assay on EKVX it was 40.9 µM (inactive); with HCC 2998 it was > 100 µM (inactive); in the assay with KM12, 43.9 µM (inactive); in the assay with LOX IMVI, 32.1 µM (inactive); in the assay on M14, 34.8 µM (inactive). Further, the GI50 in the assay on MCF7 was 36.5 µM (inactive); with Malme-3M, 44.3 µM (inactive); in the assay on NCI-H23, 41.4 µM (inactive); in the assay on OVCAR-4 it was 46.7 µM (inactive); in the assay with RXF 393, 21.3 µM (inactive); with SNB-19 it was > 100 µM (inactive). In addition, the results for the GI50 in the assay on SR, in the assay with T47D and in the assay with UACC-257 were 26.8 µM (inactive), 2.04 µM (inactive) and 37.2 µM (inactive), respectively.
